Test results reported in ChEMBL document CHEMBL1201862, “PubChem BioAssay data set” (2004).
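Assay format: 96-well plates, 48-hour exposure. GI50: concentration for 50% inhibition of growth.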 Active and inactive are the calls of the source. Cut-off read from the data, not from the text of the source: active = GI50 up to about 1.1 µM and inactive = higher. Where a SMILES comes first, the peptide text is derived from it. The star is where a group is joined. Boc = CC(C)(C)OC(=O)*

Columns and labels:
Assay in all cases: DTP human tumour cell line panel, 48 h
SN12C = test system: SN12C
OVCAR-4 = test system: OVCAR-4
ACHN = test system: ACHN
HOP-62 = test system: HOP-62
TK-10 = test system: TK-10
OVCAR-3 = test system: OVCAR-3
A498 = test system: A498
PC-3 = test system: PC-3
786-0 = test system: 786-0
MCF7 = test system: MCF7
MDA-MB-231 = test system: MDA-MB-231
NCI-H23 = test system: NCI-H23
UO-31 = test system: UO-31
SK-MEL-28 = test system: SK-MEL-28
MDA-MB-435 = test system: MDA-MB-435
UACC-257 = test system: UACC-257
HL-60 = test system: HL-60
IGROV-1 = test system: IGROV-1
HCC 2998 = test system: HCC 2998
NCI-H226 = test system: NCI-H226

Structure (SMILES) | GI50 (SN12C) | GI50 (OVCAR-4) | GI50 (ACHN) | GI50 (HOP-62) | GI50 (TK-10) | GI50 (OVCAR-3) | GI50 (A498) | GI50 (PC-3) | GI50 (786-0) | GI50 (MCF7) | GI50 (MDA-MB-231) | GI50 (NCI-H23) | GI50 (UO-31) | GI50 (SK-MEL-28) | GI50 (MDA-MB-435) | GI50 (UACC-257) | GI50 (HL-60) | GI50 (IGROV-1) | GI50 (HCC 2998) | GI50 (NCI-H226)
CC(=O)OCC1OC(n2c(N)c(C#N)c(-c3cccc(Cl)c3)c(C#N)c2=S)C(OC(C)=O)C(OC(C)=O)C1OC(C)=O (stereo not given) | 37.6 µM (inactive) | 16.7 µM (inactive) | 29.1 µM (inactive) | 23.3 µM (inactive) | 19.9 µM (inactive) | 14.8 µM (inactive) | 20.6 µM (inactive) | 24.9 µM (inactive) | 22.2 µM (inactive) | 21.5 µM (inactive) | 18.9 µM (inactive) | 24.2 µM (inactive) | 40.2 µM (inactive) | 38.7 µM (inactive) | 15.4 µM (inactive) | 22 µM (inactive) | 17.9 µM (inactive) | 30.5 µM (inactive) | 10.8 µM (inactive) | –
Nc1cc2c3c(cccc3c1)C(=O)N(c1ccc(OCCN3CCCC3)cc1)C2=O | 21.8 µM (inactive) | 17.1 µM (inactive) | 13.5 µM (inactive) | 15.9 µM (inactive) | 17.5 µM (inactive) | 16 µM (inactive) | 36.5 µM (inactive) | 21.4 µM (inactive) | 15.2 µM (inactive) | 17.3 µM (inactive) | 24.8 µM (inactive) | 14.4 µM (inactive) | 15.1 µM (inactive) | 20.3 µM (inactive) | 18.7 µM (inactive) | 16.2 µM (inactive) | – | 16.3 µM (inactive) | 17.5 µM (inactive) | 14.5 µM (inactive)
CC(=O)Nc1ccc2cc(C#N)c(=O)[nH]c2n1 | > 100 µM (inactive) | > 100 µM (inactive) | > 100 µM (inactive) | > 100 µM (inactive) | > 100 µM (inactive) | > 100 µM (inactive) | > 100 µM (inactive) | > 100 µM (inactive) | > 100 µM (inactive) | > 100 µM (inactive) | > 100 µM (inactive) | > 100 µM (inactive) | > 100 µM (inactive) | > 100 µM (inactive) | > 100 µM (inactive) | > 100 µM (inactive) | – | > 100 µM (inactive) | > 100 µM (inactive) | > 100 µM (inactive)
NC1CC(=O)c2cc(Br)sc21 (stereo not given) | > 100 µM (inactive) | – | > 100 µM (inactive) | > 100 µM (inactive) | > 100 µM (inactive) | > 100 µM (inactive) | > 100 µM (inactive) | > 100 µM (inactive) | > 100 µM (inactive) | > 100 µM (inactive) | > 100 µM (inactive) | – | > 100 µM (inactive) | > 100 µM (inactive) | > 100 µM (inactive) | > 100 µM (inactive) | > 100 µM (inactive) | > 100 µM (inactive) | > 100 µM (inactive) | –
CCCC/C=C/C/C=C/CCCCCCCCC(=O)OCC1CCCN2CCCCC12 (stereo not given) | > 100 µM (inactive) | 79.8 µM (inactive) | > 100 µM (inactive) | > 100 µM (inactive) | > 100 µM (inactive) | > 100 µM (inactive) | > 100 µM (inactive) | > 100 µM (inactive) | > 100 µM (inactive) | > 100 µM (inactive) | > 100 µM (inactive) | > 100 µM (inactive) | 59.4 µM (inactive) | > 100 µM (inactive) | > 100 µM (inactive) | 63.2 µM (inactive) | 17.3 µM (inactive) | – | > 100 µM (inactive) | > 100 µM (inactive)
c1ccc(CSc2ccccc2CN2CCN(Cc3ccccc3SCc3ccccc3)CCN(Cc3ccccc3SCc3ccccc3)CC2)cc1 | 1.72 µM (inactive) | 1.45 µM (inactive) | 2.58 µM (inactive) | 1.93 µM (inactive) | 2.3 µM (inactive) | 0.466 µM (active) | 2.25 µM (inactive) | 1.26 µM (inactive) | 1.61 µM (inactive) | 1.48 µM (inactive) | 1.51 µM (inactive) | 0.951 µM (active) | 2.59 µM (inactive) | 1.88 µM (inactive) | 1.31 µM (inactive) | 1.39 µM (inactive) | 1.5 µM (inactive) | – | 1.09 µM (active) | 1.81 µM (inactive)
COc1ccc(C2=Nn3c(C)nnc3S/C2=C\c2ccc(-c3ccc([N+](=O)[O-])cc3)o2)cc1 | 11 µM (inactive) | 22.2 µM (inactive) | 11.7 µM (inactive) | 24.4 µM (inactive) | 13.7 µM (inactive) | 10.9 µM (inactive) | 31.2 µM (inactive) | 9.84 µM (inactive) | 4.94 µM (inactive) | 3.18 µM (inactive) | 19.9 µM (inactive) | 13.9 µM (inactive) | 15.1 µM (inactive) | – | 3.78 µM (inactive) | 17.3 µM (inactive) | 5.12 µM (inactive) | 20.8 µM (inactive) | 7.41 µM (inactive) | 27.2 µM (inactive)
COC(=O)C(=O)C(C(=O)C(=O)Nc1ccc([N+](=O)[O-])cc1[N+](=O)[O-])c1nc2ccc(Cl)cc2nc1O (stereo not given) | > 100 µM (inactive) | 27.1 µM (inactive) | > 100 µM (inactive) | – | – | > 100 µM (inactive) | > 100 µM (inactive) | > 100 µM (inactive) | > 100 µM (inactive) | > 100 µM (inactive) | 50.2 µM (inactive) | > 100 µM (inactive) | 80.4 µM (inactive) | > 100 µM (inactive) | > 100 µM (inactive) | > 100 µM (inactive) | > 100 µM (inactive) | – | > 100 µM (inactive) | 78.5 µM (inactive)
Nc1ccccc1/N=C/c1cc2cc([N+](=O)[O-])ccc2s1 | 23.8 µM (inactive) | – | 11.6 µM (inactive) | 16.8 µM (inactive) | 15.2 µM (inactive) | 14 µM (inactive) | 10.4 µM (inactive) | 14.2 µM (inactive) | 14.5 µM (inactive) | 5.27 µM (inactive) | 16.3 µM (inactive) | 33 µM (inactive) | 15.7 µM (inactive) | 22 µM (inactive) | 31.4 µM (inactive) | 19.5 µM (inactive) | 7.43 µM (inactive) | 7.59 µM (inactive) | 19.3 µM (inactive) | –
CC(C)COC(c1ccc2c(c1)OCO2)C(C)Br (stereo not given) | 20.7 µM (inactive) | 34.1 µM (inactive) | 34 µM (inactive) | 24.9 µM (inactive) | 30.9 µM (inactive) | 16.2 µM (inactive) | 33.4 µM (inactive) | 30.9 µM (inactive) | 23.4 µM (inactive) | 31.4 µM (inactive) | 35.9 µM (inactive) | 26.2 µM (inactive) | 22.5 µM (inactive) | 48.6 µM (inactive) | 21.7 µM (inactive) | 23 µM (inactive) | – | 32.8 µM (inactive) | 18.4 µM (inactive) | 26.4 µM (inactive)
Cc1cc2c(c(S(=O)(=O)c3ccc(Cl)cc3[N+](=O)[O-])c1)NCCC2 | > 100 µM (inactive) | 15.3 µM (inactive) | 18.3 µM (inactive) | 50.9 µM (inactive) | > 100 µM (inactive) | > 100 µM (inactive) | > 100 µM (inactive) | 9.64 µM (inactive) | > 100 µM (inactive) | 59.6 µM (inactive) | > 100 µM (inactive) | 45 µM (inactive) | > 100 µM (inactive) | > 100 µM (inactive) | 42.9 µM (inactive) | – | > 10 µM (inactive) | > 100 µM (inactive) | > 100 µM (inactive) | > 100 µM (inactive)
COc1cc2c(c(OC)c1)C(C)=NC(C)C2 (stereo not given) | > 100 µM (inactive) | – | > 100 µM (inactive) | > 100 µM (inactive) | > 100 µM (inactive) | – | > 100 µM (inactive) | > 100 µM (inactive) | > 100 µM (inactive) | > 100 µM (inactive) | > 100 µM (inactive) | > 100 µM (inactive) | > 100 µM (inactive) | > 100 µM (inactive) | > 100 µM (inactive) | > 100 µM (inactive) | > 100 µM (inactive) | > 100 µM (inactive) | > 100 µM (inactive) | > 100 µM (inactive)
CNC(=O)CNC(=O)C(NC(=O)CNC(=O)C1CCCN1C(=O)C(C)NC(=O)C(NC(C)=O)C(C)C)C(C)C (stereo not given) (Ac-VAPGVG-NHMe; configuration not given here) | > 100 µM (inactive) | > 100 µM (inactive) | > 100 µM (inactive) | > 100 µM (inactive) | > 100 µM (inactive) | > 100 µM (inactive) | > 100 µM (inactive) | > 100 µM (inactive) | > 100 µM (inactive) | > 100 µM (inactive) | > 100 µM (inactive) | > 100 µM (inactive) | > 100 µM (inactive) | > 100 µM (inactive) | > 100 µM (inactive) | > 100 µM (inactive) | > 100 µM (inactive) | > 100 µM (inactive) | > 100 µM (inactive) | –
CNC(=O)CNC(=O)C(NC(=O)CNC(=O)C1CCCN1C(=O)C(C)NC(=O)C(NC(=O)OC(C)(C)C)C(C)C)C(C)C (stereo not given) (Boc-VAPGVG-NHMe; configuration not given here) | > 100 µM (inactive) | > 100 µM (inactive) | > 100 µM (inactive) | > 100 µM (inactive) | > 100 µM (inactive) | > 100 µM (inactive) | > 100 µM (inactive) | > 100 µM (inactive) | > 100 µM (inactive) | > 100 µM (inactive) | > 100 µM (inactive) | > 100 µM (inactive) | > 100 µM (inactive) | > 100 µM (inactive) | > 100 µM (inactive) | > 100 µM (inactive) | > 100 µM (inactive) | > 100 µM (inactive) | > 100 µM (inactive) | –
